From US20140323504A1, “Pyrazolo[4,3-c]Pyridine Derivatives As Kinase Inhibitors” (Cellzome Limited, priority 2011, published 2014)

Biological target: T1, TEC (Homo sapiens, UniProt P42680)
T1 construct: endogenous in cells; host or cells: 1:1 mix of Jurkat and Ramos cell lysates
T1 sequence (P42680 1-631): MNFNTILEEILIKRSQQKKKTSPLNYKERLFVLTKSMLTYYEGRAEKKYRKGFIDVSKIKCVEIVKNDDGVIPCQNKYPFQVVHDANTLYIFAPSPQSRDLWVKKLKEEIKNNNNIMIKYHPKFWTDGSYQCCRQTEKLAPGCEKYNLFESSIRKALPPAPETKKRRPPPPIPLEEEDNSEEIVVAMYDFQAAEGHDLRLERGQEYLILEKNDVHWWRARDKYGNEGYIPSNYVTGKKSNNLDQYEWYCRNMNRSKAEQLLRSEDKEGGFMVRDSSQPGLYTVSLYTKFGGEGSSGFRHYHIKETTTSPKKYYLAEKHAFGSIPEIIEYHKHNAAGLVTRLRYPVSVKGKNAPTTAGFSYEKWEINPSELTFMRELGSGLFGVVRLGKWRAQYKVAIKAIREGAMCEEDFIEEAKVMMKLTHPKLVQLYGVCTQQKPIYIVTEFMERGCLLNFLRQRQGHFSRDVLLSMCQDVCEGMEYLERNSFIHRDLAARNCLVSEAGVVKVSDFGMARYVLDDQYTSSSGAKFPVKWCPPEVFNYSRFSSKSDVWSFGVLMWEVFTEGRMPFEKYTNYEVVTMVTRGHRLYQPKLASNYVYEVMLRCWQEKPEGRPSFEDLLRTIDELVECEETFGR
Assay: Kinobeads assay with quantitative mass spectrometry, TEC
Type: binding
Conditions: Jurkat/Ramos lysate, read-out: TEC inhibition value (IC50)
Procedure: Selected compounds of the present invention as described in the previous examples were tested in a Kinobeads™ assay as described (WO-A 2006/134056; Bantscheff et al., 2007. Nature Bioteclmol. 25, 1035-1044).
Compounds were incubated with cell lysate aliquots (1:1 mix of Jurkat and Ramos cell lysates) for 45 minutes at 4° C. and allowed to bind to the proteins in the lysate sample. Then the Kinobeads™ affinity matrix was added to capture proteins that were not interacting with the previously added compound. After this two hour incubation step at 4° C. beads were separated from the lysate and bead bound proteins were eluted in SDS sample buffer and subsequently separated by SDS-Polyacrylamide gel electrophoresis. […] The TMT reagents are a set of multiplexed, amine-specific, stable isotope reagents that can label peptides in up to six different biological samples enabling simultaneous identification and quantitation of peptides. The combined samples were fractionated using reversed-phase chromatography at pH 11 and fractions were subsequently analyzed with a nano-flow liquid chromatography system coupled online to a tandem mass spectrometer (LC-MSMS) experiment followed by reporter ion quantification in the MSMS spectra (Ross et al., 2004. Mol. Cell. Proteomics 3(12):1154-1169; Dayon et al., 2008. Anal. Chem. 80(8):2921-2931; Thompson et al., 2003. Anal. Chem. 75(8):1895-1904). […]

IC50 [nM] | SMILES
12 | C=CC(=O)Nc1cccc(Cn2ncc3cnc(Nc4cnn(C)c4)nc32)c1 [Example 1, N-(3-((6-((1-Methyl-1H-pyrazol-4-yl)amino)-1H-pyrazolo[3,4-d]pyrimidin-1-yl)methyl)phenyl)acrylamide]
34 | C=CC(=O)Nc1cc(Cn2ncc3cnc(Nc4cnn(C)c4)nc32)ccc1F [Example 2, […]]
